Read-outs that look alike come from different tables or passages of the source.
Assays:
OTR of the CNS = molecular target: T1, OTR of the CNS (Rattus norvegicus, UniProt P70536); experiment: PET imaging of the brain using a rat model; type: in vivo, Sprague–Dawley rats; details: rats, 90 min ([18F]3) or 45 min ([11C]4) scan
T1 sequence (P70536 1-388): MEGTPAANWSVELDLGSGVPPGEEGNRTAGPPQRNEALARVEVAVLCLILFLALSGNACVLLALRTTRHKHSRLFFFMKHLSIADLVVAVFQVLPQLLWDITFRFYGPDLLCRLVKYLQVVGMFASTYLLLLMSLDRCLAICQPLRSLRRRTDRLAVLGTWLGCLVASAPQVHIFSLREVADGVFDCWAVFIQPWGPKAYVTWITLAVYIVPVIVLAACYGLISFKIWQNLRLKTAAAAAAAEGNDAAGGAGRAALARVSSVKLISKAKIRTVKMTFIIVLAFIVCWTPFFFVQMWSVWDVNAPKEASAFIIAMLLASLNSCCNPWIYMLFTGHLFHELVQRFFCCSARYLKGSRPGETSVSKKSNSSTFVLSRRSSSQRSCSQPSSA

[1] = type: in vivo; details: female Sprague–Dawley rats, iv; for Biodistribution of radioactivity, Liver: mean ± SD

Compound | viability for in vivo PET imaging of brain OTR (OTR of the CNS) | in vivo stability of the radiolabel (thyroid / bone uptake over time) [1] | Biodistribution of radioactivity, Liver ([1]; 15 min) | Biodistribution of radioactivity, Liver ([1]; 30 min) | Biodistribution of radioactivity, Liver ([1]; 60 min) | Biodistribution of radioactivity, Liver ([1]; 120 min)
CS(=O)(=O)N1CCC(Oc2ccc(CC(=O)N3CCC(N4C(=O)CCc5ccccc54)CC3)c(O[11CH3])c2)CC1 [[^11C]4, 1-(1-(2-(2-[^11C]methoxy-4-((1-(methylsulfonyl)piperidin-4-yl)oxy)phenyl)acetyl)piperidin-4-yl)-3,4-dihydroquin olin-2(1H)-one] | not viable for in vivo PET imaging of the OTR of the CNS |  |  |  |  | 
1-(4-(3,4-Dihydroquinolin-1(2H)-yl)piperidin-1-yl)-2-(2-(2-[^18F]fluoroethoxy)-4-((1-(methylsulfonyl)piperidin-4-yl)oxy)phenyl)ethanone [[^18F]3] | not viable for in vivo PET imaging of the OTR of the CNS | appeared to remain intact | 1.81 ± 0.36 %ID/g | 1.41 ± 0.17 %ID/g | 0.98 ± 0.44 %ID/g | 1.18 ± 0.18 %ID/g

Reference: paper PMC3701955 (Bioorganic & medicinal chemistry, 2012)
